Data as given in article doi:10.1101/2023.10.24.563163v2, “Targeting cancer with small molecule pan-KRAS degraders” (biorxiv, 2024).
Like-named read-outs stand apart in the source and are kept apart here. Blank lines part the entries; values can stand above or below the compound they belong to.

What was measured:
[1] = target: KRAS^G12D (Homo sapiens, UniProt P01116, G12D); assay: cell-based; design: endogenous; KRAS degradation by capillary electrophoresis immunodetection; details: GP2d; read-out: Dmax 24 h GP2d [%]
Procedure: (§1) Protein Detection by Capillary Electrophoresis Cells (50 000) were seeded the day before treatment into 96-well clear-flat bottom plates and incubated overnight (37 °C, humidified tissue culture incubator, 5% CO2). Compounds were added from DMSO stock solution using a digital dispenser and cells are incubated at 37 °C as specified (24 hours for KRAS degradation, 6 hours for determination of pERK levels). At the end of the incubation, medium was removed, cells washed with ice cold PBS, PBS removed and 50 µL lysis buffer (Meso Scale Discovery #R60TX-2) supplemented with 1:100 protease inhibitor solution, 1:100 phosphatase inhibitor I, 1:100 phosphatase inhibitor II (Meso Scale Discovery #R70AA-1), 0.5 µL/mL Benzonase (Novagen #70664-3) and 10 mM dithiothreitol added to each well. Plates with lysis buffer were immediately transferred to -80 °C freezer for at least 2 hours and then thawed on ice. Lysates were transferred to a 96 well V-bottom plate and insoluble debris was pelleted by centrifugation for 20 min. at 4 000 rpm. 40 µL of the supernatant were transferred to a fresh Eppendorf PCR plate. Analysis of protein levels was conducted using the Wes System, ProteinSimple (https://www.bio-techne.com/) as specified by the manufacturer. Briefly, Wes Master Mix (12-230 kDa WES Separation Module, 8 × 25 capillary cartridges, ProteinSimple #SM-W004) and molecular weight markers were prepared as specified in the manufacturer’s recommendations. To detect primary antibodies, anti-rabbit (Protein Simple #DM-001) or anti-mouse (Protein Simple #DM-002) detection modules were used. 7.2 µL lysate + 1.8 µL master mix were combined and heated to 95 °C for 5 min. […] Next, we set out to test the ability of a single pan-KRAS degrading molecule, compound 4, to selectively suppress oncogenic signaling and proliferation in cancer cell lines driven by diverse KRAS mutants. To this end, we first confirmed degradation of KRAS by compound 4 in KRAS-dependent (GP2d, SW620 and NCI-H358 expressing KRAS^G12D, - G12V or -G12C, respectively) as well as in KRAS independent (A-375, HEK293) cell lines (Fig. 3A, fig. S4A). […] Both inhibition and degradation repressed the established markers of MAPK signaling pERK (fig. S4B-D) and DUSP6 (Fig. 3B, fig. S4E) in KRAS dependent cell lines. […] Neither degradation nor inhibition had appreciable antiproliferative effects in the KRAS independent cell lines A-375 and HEK293 (Fig. 3C, fig. S4F).

[2] = target: KRAS^G12V (Homo sapiens, UniProt P01116, G12V); assay: cell-based; design: endogenous; KRAS degradation by capillary electrophoresis immunodetection; details: SW-620; read-out: Dmax 24 h SW620 [%]
Procedure: as §1

[3] = system: GP2d; assay: cells; design: Inhibition of cell proliferation, 5 days; details: 120 h, read-out: IC50 Proliferation GP2d
From the text: (§2) Next, we set out to test the ability of a single pan-KRAS degrading molecule, compound 4, to selectively suppress oncogenic signaling and proliferation in cancer cell lines driven by diverse KRAS mutants. To this end, we first confirmed degradation of KRAS by compound 4 in KRAS-dependent (GP2d, SW620 and NCI-H358 expressing KRAS^G12D, - G12V or -G12C, respectively) as well as in KRAS independent (A-375, HEK293) cell lines (Fig. 3A, fig. S4A). […] Both inhibition and degradation repressed the established markers of MAPK signaling pERK (fig. S4B-D) and DUSP6 (Fig. 3B, fig. S4E) in KRAS dependent cell lines. […] Neither degradation nor inhibition had appreciable antiproliferative effects in the KRAS independent cell lines A-375 and HEK293 (Fig. 3C, fig. S4F). […] Pan-KRAS degradation impacts MAPK signaling and cancer cell proliferation.

[4] = system: SW620; assay: cells; design: pERK levels by capillary electrophoresis; details: Homo sapiens, SW-620, 6 h
Procedure: (§3) Protein Detection by Capillary Electrophoresis Cells (50 000) were seeded the day before treatment into 96-well clear-flat bottom plates and incubated overnight (37 °C, humidified tissue culture incubator, 5% CO2). Compounds were added from DMSO stock solution using a digital dispenser and cells are incubated at 37 °C as specified (24 hours for KRAS degradation, 6 hours for determination of pERK levels). At the end of the incubation, medium was removed, cells washed with ice cold PBS, PBS removed and 50 µL lysis buffer (Meso Scale Discovery #R60TX-2) supplemented with 1:100 protease inhibitor solution, 1:100 phosphatase inhibitor I, 1:100 phosphatase inhibitor II (Meso Scale Discovery #R70AA-1), 0.5 µL/mL Benzonase (Novagen #70664-3) and 10 mM dithiothreitol added to each well. Plates with lysis buffer were immediately transferred to -80 °C freezer for at least 2 hours and then thawed on ice. Lysates were transferred to a 96 well V-bottom plate and insoluble debris was pelleted by centrifugation for 20 min. at 4 000 rpm. 40 µL of the supernatant were transferred to a fresh Eppendorf PCR plate. Analysis of protein levels was conducted using the Wes System, ProteinSimple (https://www.bio-techne.com/) as specified by the manufacturer. Briefly, Wes Master Mix (12-230 kDa WES Separation Module, 8 × 25 capillary cartridges, ProteinSimple #SM-W004) and molecular weight markers were prepared as specified in the manufacturer’s recommendations. To detect primary antibodies, anti-rabbit (Protein Simple #DM-001) or anti-mouse (Protein Simple #DM-002) detection modules were used. 7.2 µL lysate + 1.8 µL master mix were combined and heated to 95 °C for 5 min. Th

[5] = system: A375; assay: cells; design: pERK levels by capillary electrophoresis; details: Homo sapiens, A-375, 6 h
Procedure: as §3

[6] = system: GP2d; assay: cells; design: pERK levels by capillary electrophoresis; details: GP2d, 6 h
Procedure: as §3

[7] = system: HEK293; assay: cells; design: pERK levels by capillary electrophoresis; details: Homo sapiens, HEK293, 6 h
Procedure: as §3

[8] = system: SW620; assay: cells; design: DUSP6 modulation; details: Homo sapiens, SW-620, 6 h; read-out: IC50 DUSP6
From the text: (§4) Next, we set out to test the ability of a single pan-KRAS degrading molecule, compound 4, to selectively suppress oncogenic signaling and proliferation in cancer cell lines driven by diverse KRAS mutants. To this end, we first confirmed degradation of KRAS by compound 4 in KRAS-dependent (GP2d, SW620 and NCI-H358 expressing KRAS^G12D, - G12V or -G12C, respectively) as well as in KRAS independent (A-375, HEK293) cell lines (Fig. 3A, fig. S4A). […] Both inhibition and degradation repressed the established markers of MAPK signaling pERK (fig. S4B-D) and DUSP6 (Fig. 3B, fig. S4E) in KRAS dependent cell lines. […] Neither degradation nor inhibition had appreciable antiproliferative effects in the KRAS independent cell lines A-375 and HEK293 (Fig. 3C, fig. S4F).

[9] = system: GP2d; assay: cells; design: DUSP6 modulation; details: GP2d, 6 h; read-out: IC50 DUSP6
From the text: as §4

[10] = target: T1, KRAS^WT (Homo sapiens, UniProt P01116); assay: cell-based; design: KRAS degradation by capillary electrophoresis immunodetection; details: A-375; read-out: Dmax 24 h A375 [%]
T1 construct: endogenous wild type
Procedure: as §1

[11] = system: NCI-H358; assay: cells; design: Inhibition of cell proliferation, 5 days; details: Homo sapiens, NCI-H358, 120 h; read-out: IC50 Proliferation NCI-H358
From the text: as §2

[12] = system: SW620; assay: cells; design: Inhibition of cell proliferation, 5 days; details: Homo sapiens, SW-620, 120 h; read-out: IC50 Proliferation SW620
From the text: as §2

[13] = system: A375; assay: cells; design: Inhibition of cell proliferation, 5 days; details: Homo sapiens, A-375, 120 h; read-out: IC50 Proliferation A375
From the text: as §2

[14] = system: HEK293; assay: cells; design: Inhibition of cell proliferation, 5 days; details: Homo sapiens, HEK293, 120 h; read-out: IC50 Proliferation HEK293
From the text: as §2

[15] = target: T2, KRAS (Homo sapiens, UniProt P01116, C118S/G12V); assay: SPR, biotinylated KRAS immobilised; assay type: binding
T2 construct: residues 1-169, C118S background; His6 tag removed, E. coli; biotinylated for SPR

[16] = system: NCI-H358; assay: cells; design: pERK levels by capillary electrophoresis; details: Homo sapiens, NCI-H358, 6 h
Procedure: as §3

[17] = system: NCI-H358; assay: cells; design: DUSP6 modulation; details: Homo sapiens, NCI-H358, 6 h; read-out: IC50 DUSP6
From the text: as §4

Chain of KRAS^G12V (P01116 whole entry G12V): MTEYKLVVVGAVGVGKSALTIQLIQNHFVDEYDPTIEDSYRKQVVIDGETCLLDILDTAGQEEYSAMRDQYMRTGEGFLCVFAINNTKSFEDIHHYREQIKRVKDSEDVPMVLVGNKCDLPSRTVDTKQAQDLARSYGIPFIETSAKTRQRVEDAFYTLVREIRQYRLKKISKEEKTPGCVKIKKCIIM
T2 sequence (P01116 1-169 G12V/C118S): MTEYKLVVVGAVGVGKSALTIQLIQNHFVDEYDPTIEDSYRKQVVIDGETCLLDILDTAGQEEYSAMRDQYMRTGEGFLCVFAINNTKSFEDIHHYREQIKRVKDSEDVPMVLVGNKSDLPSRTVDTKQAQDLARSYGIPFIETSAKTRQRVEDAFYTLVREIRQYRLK
Chain of KRAS^G12D (P01116 whole entry G12D): as the sequence (P01116 whole entry G12V) above, with V12D counted along it
T1 sequence (P01116 whole entry): as the sequence (P01116 whole entry G12V) above, with V12G counted along it

Dmax [1]: < 15%
Dmax [2]: < 15%
IC50 [4]: > 1000 nM
IC50 [5]: > 1000 nM
IC50 [6]: 1.3 nM
IC50 [8]: 310 nM
IC50 [9]: 0.1 nM
Dmax [10]: < 15%
Structure (SMILES): C#Cc1c(F)ccc2cc(O)cc(-c3ncc4c(N5C[C@H]6CC[C@@H](C5)N6)nc(OC[C@@]56CCCN5C[C@H](F)C6)nc4c3F)c12 [MRTX1133]
IC50 [3]: 2.4 nM
IC50 [7]: > 1000 nM

IC50 [11]: 613 nM
IC50 [12]: 208 nM
IC50 [13]: > 1000 nM
Structure (SMILES): C[C@H](Oc1ccnc(-c2noc([C@@]3(C)CCCc4sc(N)c(C#N)c43)n2)n1)[C@@H]1CCCN1C [BI-2865]
IC50 [3]: 251 nM
IC50 [14]: > 1000 nM

Kd [15]: 25 nM
Structure (SMILES): C[C@H]1CNCCCN1c1nccc(-c2noc([C@@]3(C)CCCc4sc(N)c(C#N)c43)n2)n1 [compound 1]

IC50 [11]: 12.3 nM
IC50 [16]: 29 nM
IC50 [17]: 5.6 nM
Structure (SMILES): C=CC(=O)N1CCN(c2nc(=O)n(-c3c(C)ccnc3C(C)C)c3nc(-c4c(O)cccc4F)c(F)cc23)[C@@H](C)C1 [sotorasib]
